What follows are molecules tested against T1, AURKA (Homo sapiens, UniProt O14965). Settings: 100 nM compound, Jurkat cells, 24 h, Table 1.
T1 construct: endogenous in cells; host or cells: Jurkat cells
T1 sequence (O14965 1-403): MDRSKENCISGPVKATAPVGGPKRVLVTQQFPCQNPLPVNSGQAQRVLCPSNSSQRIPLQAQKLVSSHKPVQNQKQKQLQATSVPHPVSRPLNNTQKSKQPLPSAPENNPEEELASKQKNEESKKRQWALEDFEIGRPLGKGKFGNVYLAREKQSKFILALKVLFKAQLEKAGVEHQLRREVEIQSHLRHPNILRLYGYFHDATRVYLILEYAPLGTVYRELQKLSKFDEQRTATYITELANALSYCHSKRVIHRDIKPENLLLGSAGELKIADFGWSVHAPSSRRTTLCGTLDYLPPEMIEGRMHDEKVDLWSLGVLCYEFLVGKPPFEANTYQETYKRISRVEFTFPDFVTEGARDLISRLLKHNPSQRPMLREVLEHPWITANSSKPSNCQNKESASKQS
Assay type: cell-based
Description: WB is a classical biochemical experimental method used to detect the abundance of a target protein in a sample of cells or biological tissue. It relies on specific antigen-antibody binding to detect protein signals from the sample processed by gel electrophoresis: the protein specifically binds to a primary antibody at an epitope; the primary antibody is then conjugated with a secondary antibody to amplify the signal cascade; the signal is read out by chemiluminescent or fluorescent detection. The intracellular protein content is ultimately characterized by the intensity of the optical signals. […] The DC50 value can be calculated by curve fitting of the protein WB exposure signals.
The experimental procedure is as follows: • 1. Seed Jurkat cells into a 12-well plate at 1×10^6 cells/500 µL/well. • 2. Mix the culture medium with the compound to a concentration that is twice the desired final concentration. […] Transfer the cell suspension to a centrifuge tube. Rinse the 12-well plate with PBS and then transfer the PBS from the plate to the same centrifuge tube. Centrifuge at 3000 rpm for 5 min at room temperature. Aspirate the supernatant using a vacuum pump. […] Lyse on ice for 20 min. • 4. Centrifuge the lysed sample at 13000 rpm for 20 min at 4°C. Mix the supernatant with 5× protein loading buffer. Boil at 100°C for 5 min and then cool. Store the denatured protein sample at -20°C. • 5. […] Run electrophoresis at 80 V for 20 min, and then at 120 V constant voltage for 60 min. • 6. Transfer the protein onto a nitrocellulose membrane in an ice bath at 250 mA constant current for 90 min. • 7. […] Incubate with a primary antibody overnight at 4°C. • 9. […] Incubate with a secondary antibody for 1-2 h at room temperature. • 10. […] Expose and image the membrane using a LICOR Odyssey DLx imager.

SMILES | Percentage of AURKA Degradation Induced by 100 nM Compound in Jurkat Cells
COc1cc(Nc2ncc3c(n2)-c2ccc(Cl)cc2C(c2c(F)cccc2OC)=NC3)ccc1C(=O)NCCOCCNc1cccn2c(N3CCC(=O)NC3=O)cnc12 [Compound A20] | ++ (30% < Degradation ≤ 70%)
O=C1CCN(c2ccc(C#C[C@H]3C[C@H](NC(=O)c4ccc(Nc5ncc6c(n5)-c5ccc(Cl)cc5C(c5c(F)cccc5F)=NC6)cc4)C3)cc2)C(=O)N1 [Compound A53] | ++ (30% < Degradation ≤ 70%)
O=C1CCN(c2ccc(N3CC4(CC(NC(=O)c5ccc(Nc6ncc7c(n6)-c6ccc(Cl)cc6C(c6c(F)cccc6F)=NC7)cc5)C4)C3)nc2)C(=O)N1 [Compound A60] | +++ (Degradation > 70%)

Same assay, conditions: 100 nM compound, Jurkat cells, 24 h, Table 2

SMILES | Percentage of AURKA Degradation Induced by 100 nM Compound in Jurkat Cells
O=C1CCN(c2ccc(N3CCC4(CC3)CC(NC(=O)c3ccc(Nc5ncc6c(n5)-c5ccc(Cl)cc5C(c5c(F)cccc5F)=NC6)cc3)C4)c(F)c2)C(=O)N1 [Compound A93] | ++ (30% < Degradation ≤ 70%)
O=C1CCN(c2ccc(N3CCN(CCn4ccnc4-c4ccc(Nc5ncc6c(n5)-c5ccc(Cl)cc5C(c5c(F)cccc5F)=NC6)cc4)CC3)cc2)C(=O)N1 [Compound A111] | + (Degradation ≤ 30%)
O=C1CCN(c2ccc(N3CCC(N4CCN(c5ccc(Nc6ncc7c(n6)-c6ccc(Cl)cc6C(C6CC6)=NC7)cc5)C(=O)C4)CC3)nc2)C(=O)N1 [Compound A328] | ++ (30% < Degradation ≤ 70%)
O=C1CCN(c2ccc(N3CCN(CC4CN([C@H]5CC[C@H](Nc6ncc7c(n6)-c6ccc(Cl)cc6C(c6c(F)cccc6F)=NC7)CC5)C4)CC3)nc2)C(=O)N1 [Compound A246] | + (Degradation ≤ 30%)
O=C1CCN(c2ccc(N3CCN(CC4CN([C@H]5CC[C@@H](Nc6ncc7c(n6)-c6ccc(Cl)cc6C(c6c(F)cccc6F)=NC7)CC5)C4)CC3)nc2)C(=O)N1 [Compound A247] | + (Degradation ≤ 30%)
Cc1c(N2CCC(C#Cc3cccc(Nc4ncc5c(n4)-c4ccc(Cl)cc4C(c4c(F)cccc4F)=NC5)c3)CC2)cccc1N1CCC(=O)NC1=O [Compound A161] | + (Degradation ≤ 30%)
O=C1CCN(c2ccc(N3CCC4(CC3)CC(NC(=O)c3ccc(Nc5ncc6c(n5)-c5ccc(Cl)cc5C(c5ccccc5Cl)=NC6)cc3)C4)nc2)C(=O)N1 [Compound A119] | +++ (Degradation > 70%)
O=C1CCN(c2ccc([C@H]3C[C@@H](N4CC(NC(=O)c5ccc(Nc6ncc7c(n6)-c6ccc(Cl)cc6C(c6c(F)cccc6F)=NC7)cc5)C4)C3)nc2)C(=O)N1 [Compound A114] | +++ (Degradation > 70%)
Cc1ccc(N2CCN(CCC#Cc3cccc(Nc4ncc5c(n4)-c4ccc(Cl)cc4C(c4c(F)cccc4F)=NC5)c3)CC2)cc1N1CCC(=O)NC1=O [Compound A117] | ++ (30% < Degradation ≤ 70%)

Same assay, conditions: 1 µM compound, Jurkat cells, 24 h, Table 1

SMILES | Percentage of AURKA Degradation Induced by 1 µM Compound in Jurkat Cells
COc1cc(Nc2ncc3c(n2)-c2ccc(Cl)cc2C(c2c(F)cccc2OC)=NC3)ccc1C(=O)NCCOCCNc1cccn2c(N3CCC(=O)NC3=O)cnc12 [Compound A20] | ++ (30% < Degradation ≤ 70%)
O=C1CCN(c2ccc(C#C[C@H]3C[C@H](NC(=O)c4ccc(Nc5ncc6c(n5)-c5ccc(Cl)cc5C(c5c(F)cccc5F)=NC6)cc4)C3)cc2)C(=O)N1 [Compound A53] | ++ (30% < Degradation ≤ 70%)
O=C1CCN(c2ccc(N3CC4(CC(NC(=O)c5ccc(Nc6ncc7c(n6)-c6ccc(Cl)cc6C(c6c(F)cccc6F)=NC7)cc5)C4)C3)nc2)C(=O)N1 [Compound A60] | +++ (Degradation > 70%)

Same assay, conditions: 1 µM compound, Jurkat cells, 24 h, Table 2

SMILES | Percentage of AURKA Degradation Induced by 1 µM Compound in Jurkat Cells
O=C1CCN(c2ccc(N3CCC4(CC3)CC(NC(=O)c3ccc(Nc5ncc6c(n5)-c5ccc(Cl)cc5C(c5c(F)cccc5F)=NC6)cc3)C4)c(F)c2)C(=O)N1 [Compound A93] | +++ (Degradation > 70%)
O=C1CCN(c2ccc(N3CCN(CCn4ccnc4-c4ccc(Nc5ncc6c(n5)-c5ccc(Cl)cc5C(c5c(F)cccc5F)=NC6)cc4)CC3)cc2)C(=O)N1 [Compound A111] | + (Degradation ≤ 30%)
O=C1CCN(c2ccc(N3CCC(N4CCN(c5ccc(Nc6ncc7c(n6)-c6ccc(Cl)cc6C(C6CC6)=NC7)cc5)C(=O)C4)CC3)nc2)C(=O)N1 [Compound A328] | ++ (30% < Degradation ≤ 70%)
O=C1CCN(c2ccc(N3CCN(CC4CN([C@H]5CC[C@H](Nc6ncc7c(n6)-c6ccc(Cl)cc6C(c6c(F)cccc6F)=NC7)CC5)C4)CC3)nc2)C(=O)N1 [Compound A246] | ++ (30% < Degradation ≤ 70%)
O=C1CCN(c2ccc(N3CCN(CC4CN([C@H]5CC[C@@H](Nc6ncc7c(n6)-c6ccc(Cl)cc6C(c6c(F)cccc6F)=NC7)CC5)C4)CC3)nc2)C(=O)N1 [Compound A247] | + (Degradation ≤ 30%)
Cc1c(N2CCC(C#Cc3cccc(Nc4ncc5c(n4)-c4ccc(Cl)cc4C(c4c(F)cccc4F)=NC5)c3)CC2)cccc1N1CCC(=O)NC1=O [Compound A161] | ++ (30% < Degradation ≤ 70%)
O=C1CCN(c2ccc(N3CCC4(CC3)CC(NC(=O)c3ccc(Nc5ncc6c(n5)-c5ccc(Cl)cc5C(c5ccccc5Cl)=NC6)cc3)C4)nc2)C(=O)N1 [Compound A119] | +++ (Degradation > 70%)
O=C1CCN(c2ccc([C@H]3C[C@@H](N4CC(NC(=O)c5ccc(Nc6ncc7c(n6)-c6ccc(Cl)cc6C(c6c(F)cccc6F)=NC7)cc5)C4)C3)nc2)C(=O)N1 [Compound A114] | +++ (Degradation > 70%)
Cc1ccc(N2CCN(CCC#Cc3cccc(Nc4ncc5c(n4)-c4ccc(Cl)cc4C(c4c(F)cccc4F)=NC5)c3)CC2)cc1N1CCC(=O)NC1=O [Compound A117] | ++ (30% < Degradation ≤ 70%)

Reference: patent EP4818168A1, “FUSED RING COMPOUND, PHARMACEUTICAL COMPOSITION THEREOF AND USE THEREOF” (priority 2023, dated 2025)
